Test results published in PMC9866366 (Pharmaceutics, 2023).
Square brackets hold non-standard residues; d marks the D form. Peptide text beside a SMILES is read from it. * marks the point of attachment. Alaψ(CH2NMeCH2CH2OH) = C[C@@H](CN(C)CCO)N*; Cha = N[C@@H](CC1CCCCC1)C(=O)O; Lauroyl = CCCCCCCCCCCC(=O)*; Decanoyl = CCCCCCCCCC(=O)*; Octanoyl = CCCCCCCC(=O)*; Hexanoyl = CCCCCC(=O)*; Aib = CC(C)(N)C(=O)O; Propionyl = CCC(=O)*; Butyryl = CCCC(=O)*

Experiments:
BxPC-3 cells [1] = assay: PrestoBlue cell viability assay, comparative cytotoxicity assay under 'low glucose'; format: cell-based, human; details: 24 h exposure; for IC50: 'low glucose' RPMI 1640 (no glucose added), 50.8 pM to 1 µM, three independent experiments each in technical duplicate; for AUC, PrestoBlue, BxPC-3 / Emax @ 1 µM, PrestoBlue, BxPC-3: 'low glucose', three independent experiments in duplicate; for AUC, PrestoBlue, BxPC-3: area under viability-concentration curve, baseline y = 0; for Emax @ 1 µM, PrestoBlue, BxPC-3: response (percent viability) at highest concentration 1 µM
From the text: (§1) Endpoint fluorescence was quantified as described above.

PANC-1 cells [2] = assay: as above; format: cell-based, human; details: 24 h exposure; for IC50: 'low glucose' DMEM (no glucose added), 457 pM to 9 µM, three independent experiments each in technical duplicate; for AUC, PrestoBlue, PANC-1 / Emax @ 9 µM, PrestoBlue, PANC-1: 'low glucose', three independent experiments in duplicate; for AUC, PrestoBlue, PANC-1: area under viability-concentration curve, baseline y = 0; for Emax @ 9 µM, PrestoBlue, PANC-1: response (percent viability) at highest concentration 9 µM
From the text: as §1

BxPC-3 cells [3] = assay: CyQUANT Direct cell proliferation assay, comparative cytotoxicity assay under 'low glucose'; format: cell-based, human; details: 24 h exposure; for IC50: 'low glucose' RPMI 1640 (no glucose added), 50.8 pM to 1 µM, three independent experiments each in technical duplicate; for AUC, CyQUANT Direct, BxPC-3 / Emax @ 1 µM, CyQUANT Direct, BxPC-3: 'low glucose', three independent experiments in duplicate; for AUC, CyQUANT Direct, BxPC-3: area under viability-concentration curve, baseline y = 0; for Emax @ 1 µM, CyQUANT Direct, BxPC-3: response (percent viability) at highest concentration 1 µM
From the text: as §1

PANC-1 cells [4] = assay: as above; format: cell-based, human; details: 24 h exposure; for IC50: 'low glucose' DMEM (no glucose added), 457 pM to 9 µM, three independent experiments each in technical duplicate; for AUC, CyQUANT Direct, PANC-1 / Emax @ 9 µM, CyQUANT Direct, PANC-1: 'low glucose', three independent experiments in duplicate; for AUC, CyQUANT Direct, PANC-1: area under viability-concentration curve, baseline y = 0; for Emax @ 9 µM, CyQUANT Direct, PANC-1: response (percent viability) at highest concentration 9 µM
From the text: as §1

BxPC-3 cells [5] = assay: Initial cytotoxicity assay (PrestoBlue and CyQUANT Direct Confirmation Assay), 25 mM glucose; format: cell-based, human; details: 3-day (72 h) incubation, RPMI-1640 with 25 mM glucose, up to highest concentration tested of 1 µM, both viability assays
Description: The CyQUANT™ Direct Cell Proliferation Assay was subsequently performed by mixing the CyQUANT™ Direct nucleic acid stain, CyQUANT™ Direct background suppressor I, and PBS (pH 7.4) as per the vendor instructions, then adding 100 µL of this mixture into each well. The plate was returned into the incubator for a further 1 h, and the endpoint fluorescence bottom-read at the Ex/Em wavelength of 485/538 nm on the SpectraMax iD3 plate reader. Blank wells (medium only) and two negative controls—(1) cells + medium, (2) cells + medium + 0.3% v/v DMSO (equivalent to 1 µM peptide)—were set up in the plate for each experiment.

PANC-1 cells [6] = details: 24 h exposure, medium with or without 5 mM glucose, up to 9 µM
Description: (§2) Cells were seeded at a density of 25,000 cells/well (BxPC-3) and 30,000 cells/well (PANC-1) in Nunc MicroWell 96-Well Black Optical-Bottom Plates with Polymer Base (total volume: 100 µL). Cells were first incubated overnight at 37 °C, 5% CO2 to permit adherence, after which the medium in each well was aspirated, briefly washed once with 100 µL/well of PBS (pH 7.4) and replaced with 100 µL of either RPMI 1640 (BxPC-3, #11879020) or DMEM (PANC-1, #11966025) supplemented with or without 5 mM glucose to create the ‘normal glucose’ and ‘low glucose’ media, respectively. This 5 mM glucose concentration was selected to reflect the physiological concentration of glucose in plasma. Each well was then exposed to the peptides in duplicate at a concentration range of 50.8 pM to 1 µM (BxPC-3) or 457 pM to 9 µM (PANC-1) for 24 h (threefold serial dilution in the corresponding ‘normal glucose’ or ‘low glucose’ media, ten steps). Endpoint fluorescence was quantified as described above.
(§3) Blank correction (wells containing medium only) was first performed on the raw fluorescence–concentration data from the plate reader. Cell viability was then calculated as a percentage by normalizing to the fluorescence of the wells containing the lowest drug concentration (50.8 pM for BxPC-3, 457 pM for PANC-1). The resulting data from three independent experiments (each in technical duplicate) was then plotted on GraphPad Prism 9 and analyzed using the built-in ‘[Inhibitor] vs. response—Variable slope (four parameters)’ equation.

BxPC-3 cells [7] = details: 24 h exposure, medium with or without 5 mM glucose, up to 1 µM
Description: as §2, §3

Compound	IC50 (BxPC-3 cells [1])	AUC, PrestoBlue, BxPC-3 (BxPC-3 cells [1])	Emax @ 1 µM, PrestoBlue, BxPC-3 (BxPC-3 cells [1])	IC50 (PANC-1 cells [2])	AUC, PrestoBlue, PANC-1 (PANC-1 cells [2])	Emax @ 9 µM, PrestoBlue, PANC-1 (PANC-1 cells [2])	IC50 (BxPC-3 cells [3])	AUC, CyQUANT Direct, BxPC-3 (BxPC-3 cells [3])	Emax @ 1 µM, CyQUANT Direct, BxPC-3 (BxPC-3 cells [3])	IC50 (PANC-1 cells [4])	AUC, CyQUANT Direct, PANC-1 (PANC-1 cells [4])	Emax @ 9 µM, CyQUANT Direct, PANC-1 (PANC-1 cells [4])	Inhibition of proliferation of BxPC-3 cells (in words) (BxPC-3 cells [5])	Cytotoxicity against PANC-1 under 'low glucose' vs 'normal glucose' (in words) (PANC-1 cells [6])	Cytotoxicity against BxPC-3 under 'low glucose' vs 'normal glucose' (in words) (BxPC-3 cells [7])
CCCCCCCC(=O)N1CCC[C@H]1C(=O)N[C@@H](CC1CCCCC1)C(=O)NC(C)(C)C(=O)NC(C)(C)C(=O)N[C@H](C(=O)N[C@H](C(=O)NC(C)(C)C(=O)NC(C)(C)C(=O)N[C@@H](C)CN(C)CCO)C(C)C)[C@@H](C)CC [(17)] (Octanoyl-P[Cha][Aib][Aib]IV[Aib][Aib]-{Alaψ(CH2NMeCH2CH2OH)})	400 nM	5.1 ×10^−5	20.0%	600 nM	25.5 ×10^−5	8.1%	500 nM	5.6 ×10^−5	33.5%	2000 nM	43.7 ×10^−5	31.6%			
CCCCCCCCCC(=O)N1CCC[C@H]1C(=O)N[C@@H](CC1CCCCC1)C(=O)NC(C)(C)C(=O)NC(C)(C)C(=O)N[C@H](C(=O)N[C@H](C(=O)NC(C)(C)C(=O)NC(C)(C)C(=O)N[C@@H](C)CN(C)CCO)C(C)C)[C@@H](C)CC [(18)] (Decanoyl-P[Cha][Aib][Aib]IV[Aib][Aib]-{Alaψ(CH2NMeCH2CH2OH)})	200 nM	3.3 ×10^−5	5.5%	200 nM	22.2 ×10^−5	3.3%	200 nM	3.9 ×10^−5	30.0%	2200 nM	44.7 ×10^−5	41.7%			
CCCCCC(=O)N1CCC[C@H]1C(=O)N[C@@H](CC1CCCCC1)C(=O)NC(C)(C)C(=O)NC(C)(C)C(=O)N[C@H](C(=O)N[C@H](C(=O)NC(C)(C)C(=O)NC(C)(C)C(=O)N[C@@H](C)CN(C)CCO)C(C)C)[C@@H](C)CC [(16)] (Hexanoyl-P[Cha][Aib][Aib]IV[Aib][Aib]-{Alaψ(CH2NMeCH2CH2OH)})	400 nM	5.0 ×10^−5	7.1%	500 nM	24.3 ×10^−5	7.7%	400 nM	5.2 ×10^−5	21.0%	2000 nM	42.1 ×10^−5	41.0%			
trichoderin A [(3)]	400 nM	5.4 ×10^−5	3.6%	300 nM	21.7 ×10^−5	4.7%	400 nM	4.9 ×10^−5	19.6%	1500 nM	41.0 ×10^−5	28.2%	only partially inhibited the proliferation		
CCCCCCCCCCCC(=O)N1CCC[C@H]1C(=O)N[C@@H](CC1CCCCC1)C(=O)NC(C)(C)C(=O)NC(C)(C)C(=O)N[C@H](C(=O)N[C@H](C(=O)NC(C)(C)C(=O)NC(C)(C)C(=O)N[C@@H](C)CN(C)CCO)C(C)C)[C@@H](C)CC [(19)] (Lauroyl-P[Cha][Aib][Aib]IV[Aib][Aib]-{Alaψ(CH2NMeCH2CH2OH)})	100 nM	1.6 ×10^−5	4.6%	200 nM	21.4 ×10^−5	4.7%	100 nM	2.6 ×10^−5	18.3%	800 nM	38.9 ×10^−5	26.4%			
CCC(=O)N1CCC[C@H]1C(=O)N[C@@H](CC1CCCCC1)C(=O)NC(C)(C)C(=O)NC(C)(C)C(=O)N[C@H](C(=O)N[C@H](C(=O)NC(C)(C)C(=O)NC(C)(C)C(=O)N[C@@H](C)CN(C)CCO)C(C)C)[C@@H](C)CC [(14)] (Propionyl-P[Cha][Aib][Aib]IV[Aib][Aib]-{Alaψ(CH2NMeCH2CH2OH)})	600 nM	6.8 ×10^−5	25.1%	1800 nM	38.4 ×10^−5	31.5%	600 nM	6.8 ×10^−5	27.3%	7000 nM	51.8 ×10^−5	51.5%			
CC[C@H](C)[C@H](NC(=O)C(C)(C)NC(=O)C(C)(C)NC(=O)[C@H](CC1CCCCC1)NC(=O)[C@@H]1CCCN1C(C)=O)C(=O)N[C@H](C(=O)NC(C)(C)C(=O)NC(C)(C)C(=O)N[C@@H](C)CN(C)CCO)C(C)C [(13)] (Ac-P[Cha][Aib][Aib]IV[Aib][Aib]-{Alaψ(CH2NMeCH2CH2OH)})	> 1000 nM	9.5 ×10^−5	94.0%	6000 nM	58.9 ×10^−5	34.6%	> 1000 nM	11 ×10^−5	111.3%	8500 nM	67.8 ×10^−5	48.1%		sufficient to induce cytotoxic effects	
CC[C@H](C)[C@H](NC(=O)C(C)(C)NC(=O)C(C)(C)NC(=O)[C@H](CC1CCCCC1)NC(=O)[C@@H]1CCCN1)C(=O)N[C@H](C(=O)NC(C)(C)C(=O)NC(C)(C)C(=O)N[C@@H](C)CN(C)CCO)C(C)C [(12)] (H-P[Cha][Aib][Aib]IV[Aib][Aib]-{Alaψ(CH2NMeCH2CH2OH)})	> 1000 nM	10.2 ×10^−5	104.0%	> 9000 nM	90.6 ×10^−5	101.0%	> 1000 nM	11 ×10^−5	115.0%	> 9000 nM	92.6 ×10^−5	107.0%		inactivity	inactivity
CCCC(=O)N1CCC[C@H]1C(=O)N[C@@H](CC1CCCCC1)C(=O)NC(C)(C)C(=O)NC(C)(C)C(=O)N[C@H](C(=O)N[C@H](C(=O)NC(C)(C)C(=O)NC(C)(C)C(=O)N[C@@H](C)CN(C)CCO)C(C)C)[C@@H](C)CC [(15)] (Butyryl-P[Cha][Aib][Aib]IV[Aib][Aib]-{Alaψ(CH2NMeCH2CH2OH)})	500 nM	5.8 ×10^−5	16.3%	900 nM	33.6 ×10^−5	31.0%	500 nM	5.8 ×10^−5	33.8%	4800 nM	50.3 ×10^−5	53.7%			
